Data: US20220241312A1, “COMPOUNDS FOR TREATING CANCER” (Tems Pharmaceuticals, Inc., priority 2019, published 2022)
Where a name gives a salt, the structure may show the parent alone.

Columns and labels:
[1] = test system: gastric cancer cell line MKN45; assay: Cytotoxicity assay (CellTiter Glo), MKN45; assay type: cell-based; details: Homo sapiens, MKN-45, 72 h or 120 h incubation, Compound No. 1 tested as TEA salt
Description: (§1) Cytotoxicity of the test compounds were determined for multiple cell lines including gastric cancer cell lines NCI-N-87-luc and MKN45; liver cancer cell lines HepG2, Hep3B, and Huh7; pancreatic cell lines MIAPACA-2 and PANC-1; and colon cancer cell lines HT-29 and HCT-116.
(§2) Test compounds were prepared as 10 mM stock solutions. 5-FU, the control compound, was also prepared as a 10 mM stock solution. 45 μL of stock solution was transferred to a 384 polypropylene plate. The test and control compounds were then serially diluted 3 fold 10 times by transferring 15 μL compound solution into 30 μL DMSO by using TECAN (EVO200) liquid handler. […]
(§3) For each cell line assayed, cells were grown in a flask and then were harvested from the flask into cell culture medium. The cell number was counted and the cells were diluted with cell culture medium to the 2.5*10^4 cells/mL. […]
(§4) The cell culture plates were covered with a lid, placed at room temperature for 30 min without shaking, and transferred into a 37° C. […] On the desired day, cytotoxicity of the compounds was detected using CellTiter Glo. […] 40 μL of CellTiter-Glo reagent was added into each well to be detected (at 1:1 to culture medium). The plates were placed at room temperature for 30 min and then luminescence was detected using an EnSpire plate reader. […]

[2] = test system: pancreatic cell line PANC-1; assay: Cytotoxicity assay (CellTiter Glo), PANC-1; assay type: cell-based; details: Homo sapiens, 72 h or 120 h incubation, Compound No. 1 tested as TEA salt
Description: as §1, §2, §3, §4

[3] = test system: liver cancer cell line HepG2; assay: Cytotoxicity assay (CellTiter Glo), HepG2; assay type: cell-based; details: Homo sapiens, 72 h or 120 h incubation, Compound No. 1 tested as TEA salt
Description: as §1, §2, §3, §4

[4] = test system: gastric cancer cell line NCI-N-87-luc; assay: Cytotoxicity assay (CellTiter Glo), NCI-N-87-luc; assay type: cell-based; details: 72 h or 120 h incubation, Compound No. 1 tested as TEA salt
Description: as §1, §2, §3, §4

[5] = test system: pancreatic cell line MIAPACA-2; assay: Cytotoxicity assay (CellTiter Glo), MIAPACA-2; assay type: cell-based; details: Homo sapiens, MIA PaCa-2, 72 h or 120 h incubation, Compound No. 1 tested as TEA salt
Description: as §1, §2, §3, §4

[6] = test system: liver cancer cell line Hep3B; assay: Cytotoxicity assay (CellTiter Glo), Hep3B; assay type: cell-based; details: Homo sapiens, 72 h or 120 h incubation, Compound No. 1 tested as TEA salt
Description: as §1, §2, §3, §4

[7] = test system: liver cancer cell line Huh7; assay: Cytotoxicity assay (CellTiter Glo), Huh7; assay type: cell-based; details: Homo sapiens, Huh-7, 72 h or 120 h incubation, Compound No. 1 tested as TEA salt
Description: as §1, §2, §3, §4

[8] = test system: colon cancer cell line HCT-116; assay: Cytotoxicity assay (CellTiter Glo), HCT-116; assay type: cell-based; details: Homo sapiens, 72 h or 120 h incubation, Compound No. 1 tested as TEA salt
Description: as §1, §2, §3, §4

[9] = molecular target: T1, dihydropyrimidine dehydrogenase (DPD) (Homo sapiens, UniProt Q12882); details: background statement; cited from earlier work
T1 sequence (Q12882 4-1025): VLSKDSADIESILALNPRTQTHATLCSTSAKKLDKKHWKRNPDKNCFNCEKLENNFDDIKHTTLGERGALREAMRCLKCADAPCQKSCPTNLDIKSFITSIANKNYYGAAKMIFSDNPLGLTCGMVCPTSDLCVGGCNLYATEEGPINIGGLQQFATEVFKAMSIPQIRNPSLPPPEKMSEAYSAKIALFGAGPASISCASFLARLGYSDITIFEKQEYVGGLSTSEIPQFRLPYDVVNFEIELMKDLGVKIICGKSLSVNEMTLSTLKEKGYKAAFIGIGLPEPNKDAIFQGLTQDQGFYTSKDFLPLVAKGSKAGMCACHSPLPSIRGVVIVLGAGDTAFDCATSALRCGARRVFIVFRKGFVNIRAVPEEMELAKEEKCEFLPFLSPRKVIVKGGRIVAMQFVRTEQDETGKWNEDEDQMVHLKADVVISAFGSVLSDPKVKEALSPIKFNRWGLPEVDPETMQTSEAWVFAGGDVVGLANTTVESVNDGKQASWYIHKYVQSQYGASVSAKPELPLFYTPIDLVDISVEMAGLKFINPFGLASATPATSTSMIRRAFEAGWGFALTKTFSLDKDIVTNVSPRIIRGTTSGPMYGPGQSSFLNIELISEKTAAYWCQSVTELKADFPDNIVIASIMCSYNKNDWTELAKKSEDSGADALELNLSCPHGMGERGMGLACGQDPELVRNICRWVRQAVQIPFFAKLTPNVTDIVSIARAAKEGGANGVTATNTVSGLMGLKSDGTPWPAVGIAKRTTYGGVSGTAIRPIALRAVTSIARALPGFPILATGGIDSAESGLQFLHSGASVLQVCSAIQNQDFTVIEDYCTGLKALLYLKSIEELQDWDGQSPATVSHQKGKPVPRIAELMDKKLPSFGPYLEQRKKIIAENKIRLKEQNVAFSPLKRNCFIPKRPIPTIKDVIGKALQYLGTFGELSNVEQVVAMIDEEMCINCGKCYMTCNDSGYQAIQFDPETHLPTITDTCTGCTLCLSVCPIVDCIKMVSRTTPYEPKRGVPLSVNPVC

[10] = test system: colon cancer cell line HT-29; assay: Cytotoxicity assay (CellTiter Glo), HT-29; assay type: cell-based; details: Homo sapiens, 72 h or 120 h incubation, Compound No. 1 tested as TEA salt
Description: as §1, §2, §3, §4

Row | Structure (SMILES) | CC50 [1] | CC50 [2] | CC50 [3] | CC50 [4] | CC50 [5] | CC50 [6] | CC50 [7] | CC50 [8] | fraction catabolized by dihydropyrimidine dehydrogenase (DPD) to pharmacodynamically inactive metabolites [9] | CC50 [10]
1 | O=c1[nH]cc(F)c(=O)[nH]1 [5-FU, 5-Fluorouracil] | 1680 nM | 8260 nM | 1740 nM | 3990 nM | 13100 nM | 3670 nM | 7300 nM | 6800 nM | 80-85% | 14800 nM
2 | CC(C)OC(=O)OCn1c(=O)c(F)cn([C@H]2C[C@@H]3OP(=O)(O)OC[C@H]3O2)c1=O [Compound No. 1, (4aR,6R,7aS)-6-(5-fluoro-3-(((isopropoxycarbonyl)oxy)methyl)-2,4-dioxo-3,4-dihydropyrimidin-1(2H)-yl)tetrahydro-4H-furo[3,2-d][1,3,2]dioxaphosphinin-2-olate 2-oxide triethylamine salt] | 21 nM | 706 nM | 314 nM | 515 nM | 60 nM | 45 nM | 13 nM | 411 nM | – | 15 nM
